Measured values from ChEMBL document CHEMBL3885861, “Open TG-GATES”.

Organism: Rattus norvegicus
Assay: Open TG-GATES - Regimen: Daily Repeat
Assay type: toxicity, organism-based, Sprague-Dawley
Set-up: regimen Daily Repeat, gender Male, age 6 weeks
Settings: in vivo, po, 15 mg/kg, route gavage, dose level Low; for APTT / Bas / Eos / Fbg / Hb / Ht / Lym / MCH / MCHC / MCV / Mono / Neu / PT / Plat / RBC / Ret / WBC: tissue Blood; for KIDNEY_L / KIDNEY_R / KIDNEY_TOTAL: tissue Kidney; for LIVER: tissue Liver; for A/G / ALP / ALT / AST / BUN / CRE / Ca / Cl / DBIL / GLC / IP / K / LDH / Na / PL / RALB / TBIL / TC / TG / TP / gamma-GTP: tissue Plasma

Nc1nc(N)c2nc(-c3ccccc3)c(N)nc2n1
TERMINAL_BW (72 h, time 3 day): 248.4 g
APTT (72 h, time 3 day): 16.1 s
Bas (72 h, time 3 day): 0.2%
Eos (72 h, time 3 day): 0.6%
Fbg (72 h, time 3 day): 310.8 mg/dL
Hb (72 h, time 3 day): 14.1 g/dL
Ht (72 h, time 3 day): 41.7%
Lym (72 h, time 3 day): 78.4%
MCH (72 h, time 3 day): 21.8 pg
MCHC (72 h, time 3 day): 33.8%
MCV (72 h, time 3 day): 64.7 fL
Mono (72 h, time 3 day): 2.2%
Neu (72 h, time 3 day): 18.2%
PT (72 h, time 3 day): 13.8 s
Plat (72 h, time 3 day): 132.9 x10_4/uL
RBC (72 h, time 3 day): 645.4 x10_4/ul
Ret (72 h, time 3 day): 6.8%
WBC (72 h, time 3 day): 109.4 x10_2/uL
KIDNEY_L (72 h, time 3 day): 1.1 g
KIDNEY_R (72 h, time 3 day): 1 g
KIDNEY_TOTAL (72 h, time 3 day): 2.1 g
LIVER (72 h, time 3 day): 11.6 g
A/G (72 h, time 3 day): 0.9
ALP (72 h, time 3 day): 1861.8 IU/L
ALT (72 h, time 3 day): 41.4 IU/L
AST (72 h, time 3 day): 66 IU/L
BUN (72 h, time 3 day): 14.8 mg/dL
CRE (72 h, time 3 day): 0.2 mg/dL
Ca (72 h, time 3 day): 11 mg/dL
Cl (72 h, time 3 day): 105.4 meq/L
DBIL (72 h, time 3 day): 0.01 mg/dL
GLC (72 h, time 3 day): 175.2 mg/dL
IP (72 h, time 3 day): 7.8 mg/dL
K (72 h, time 3 day): 3.8 meq/L
LDH (72 h, time 3 day): 67.2 IU/L
Na (72 h, time 3 day): 142.8 meq/L
PL (72 h, time 3 day): 159.4 mg/dL
RALB (72 h, time 3 day): 2.6 g/dL
TBIL (72 h, time 3 day): 0.042 mg/dL
TC (72 h, time 3 day): 81.4 mg/dL
TG (72 h, time 3 day): 115 mg/dL
TP (72 h, time 3 day): 5.6 g/dL
gamma-GTP (72 h, time 3 day): 1.2 IU/L
TERMINAL_BW ([…], time 7 day): 282.4 g
TERMINAL_BW ([…], time 14 day): 340.6 g
TERMINAL_BW ([…], time 28 day): 410.6 g
APTT ([…], time 7 day): 16.7 s
Bas ([…], time 7 day): 0%
Eos ([…], time 7 day): 1%
Fbg ([…], time 7 day): 313.2 mg/dL
Hb ([…], time 7 day): 13.7 g/dL
Ht ([…], time 7 day): 42.1%
Lym ([…], time 7 day): 77.2%
MCH ([…], time 7 day): 20.1 pg
MCHC ([…], time 7 day): 32.4%
MCV ([…], time 7 day): 61.9 fL
Mono ([…], time 7 day): 2.4%
Neu ([…], time 7 day): 19.2%
PT ([…], time 7 day): 13.9 s
Plat ([…], time 7 day): 123.2 x10_4/uL
RBC ([…], time 7 day): 679.2 x10_4/ul
Ret ([…], time 7 day): 5.5%
WBC ([…], time 7 day): 88.7 x10_2/uL
APTT ([…], time 14 day): 18 s
Bas ([…], time 14 day): 0%
Eos ([…], time 14 day): 1%
Fbg ([…], time 14 day): 295.2 mg/dL
Hb ([…], time 14 day): 14.5 g/dL
Ht ([…], time 14 day): 44.4%
Lym ([…], time 14 day): 79.2%
MCH ([…], time 14 day): 20.2 pg
MCHC ([…], time 14 day): 32.7%
MCV ([…], time 14 day): 61.6 fL
Mono ([…], time 14 day): 2.2%
Neu ([…], time 14 day): 17.2%
PT ([…], time 14 day): 13.1 s
Plat ([…], time 14 day): 114.4 x10_4/uL
RBC ([…], time 14 day): 720.6 x10_4/ul
Ret ([…], time 14 day): 4.2%
WBC ([…], time 14 day): 94.6 x10_2/uL
APTT ([…], time 28 day): 18.6 s
Bas ([…], time 28 day): 0.2%
Eos ([…], time 28 day): 1.2%
Fbg ([…], time 28 day): 294.8 mg/dL
Hb ([…], time 28 day): 15.6 g/dL
Ht ([…], time 28 day): 46.4%
Lym ([…], time 28 day): 78.6%
MCH ([…], time 28 day): 18.9 pg
MCHC ([…], time 28 day): 33.6%
MCV ([…], time 28 day): 56.3 fL
Mono ([…], time 28 day): 1.8%
Neu ([…], time 28 day): 17.6%
PT ([…], time 28 day): 13.4 s
Plat ([…], time 28 day): 111.2 x10_4/uL
RBC ([…], time 28 day): 825 x10_4/ul
Ret ([…], time 28 day): 2.1%
WBC ([…], time 28 day): 89.6 x10_2/uL
KIDNEY_L ([…], time 7 day): 1.2 g
KIDNEY_R ([…], time 7 day): 1.1 g
KIDNEY_TOTAL ([…], time 7 day): 2.3 g
KIDNEY_L ([…], time 14 day): 1.3 g
KIDNEY_R ([…], time 14 day): 1.2 g
KIDNEY_TOTAL ([…], time 14 day): 2.5 g
KIDNEY_L ([…], time 28 day): 1.4 g
KIDNEY_R ([…], time 28 day): 1.4 g
KIDNEY_TOTAL ([…], time 28 day): 2.8 g
LIVER ([…], time 7 day): 13.1 g
LIVER ([…], time 14 day): 14.6 g
LIVER ([…], time 28 day): 15.5 g
A/G ([…], time 7 day): 0.8
ALP ([…], time 7 day): 1439.8 IU/L
ALT ([…], time 7 day): 39.8 IU/L
AST ([…], time 7 day): 62.6 IU/L
BUN ([…], time 7 day): 14.8 mg/dL
CRE ([…], time 7 day): 0.2 mg/dL
Ca ([…], time 7 day): 11 mg/dL
Cl ([…], time 7 day): 104.6 meq/L
DBIL ([…], time 7 day): 0.016 mg/dL
GLC ([…], time 7 day): 185 mg/dL
IP ([…], time 7 day): 7.9 mg/dL
K ([…], time 7 day): 4 meq/L
LDH ([…], time 7 day): 60.4 IU/L
Na ([…], time 7 day): 143.4 meq/L
PL ([…], time 7 day): 155.6 mg/dL
RALB ([…], time 7 day): 2.6 g/dL
TBIL ([…], time 7 day): 0.074 mg/dL
TC ([…], time 7 day): 75.2 mg/dL
TG ([…], time 7 day): 137 mg/dL
TP ([…], time 7 day): 5.7 g/dL
gamma-GTP ([…], time 7 day): 1.2 IU/L
A/G ([…], time 14 day): 0.9
ALP ([…], time 14 day): 1252.8 IU/L
ALT ([…], time 14 day): 40.2 IU/L
AST ([…], time 14 day): 62.6 IU/L
BUN ([…], time 14 day): 16.2 mg/dL
CRE ([…], time 14 day): 0.2 mg/dL
Ca ([…], time 14 day): 10.4 mg/dL
Cl ([…], time 14 day): 105 meq/L
DBIL ([…], time 14 day): 0.012 mg/dL
GLC ([…], time 14 day): 180.2 mg/dL
IP ([…], time 14 day): 7.5 mg/dL
K ([…], time 14 day): 3.8 meq/L
LDH ([…], time 14 day): 58 IU/L
Na ([…], time 14 day): 143.4 meq/L
PL ([…], time 14 day): 141.6 mg/dL
RALB ([…], time 14 day): 2.7 g/dL
TBIL ([…], time 14 day): 0.068 mg/dL
TC ([…], time 14 day): 67.4 mg/dL
TG ([…], time 14 day): 111.6 mg/dL
TP ([…], time 14 day): 5.8 g/dL
gamma-GTP ([…], time 14 day): 1 IU/L
A/G ([…], time 28 day): 0.8
ALP ([…], time 28 day): 1186.2 IU/L
ALT ([…], time 28 day): 35.6 IU/L
AST ([…], time 28 day): 63.4 IU/L
BUN ([…], time 28 day): 16.2 mg/dL
CRE ([…], time 28 day): 0.3 mg/dL
Ca ([…], time 28 day): 10.7 mg/dL
Cl ([…], time 28 day): 104.6 meq/L
DBIL ([…], time 28 day): 0.01 mg/dL
GLC ([…], time 28 day): 187.6 mg/dL
IP ([…], time 28 day): 6.6 mg/dL
K ([…], time 28 day): 3.9 meq/L
LDH ([…], time 28 day): 54.4 IU/L
Na ([…], time 28 day): 143 meq/L
PL ([…], time 28 day): 140.4 mg/dL
RALB ([…], time 28 day): 2.7 g/dL
TBIL ([…], time 28 day): 0.06 mg/dL
TC ([…], time 28 day): 69.6 mg/dL
TG ([…], time 28 day): 123 mg/dL
TP ([…], time 28 day): 6 g/dL
gamma-GTP ([…], time 28 day): 1 IU/L
